PubChem BioAssay AID720513 (Broad Institute, 2013)
Inconclusive results are not listed.

test system: U2OS PGC1a acetylation AlphaLISA, overnight; test: activators raising PGC1a acetylation in cells, dose response, cell-based, cherry-picked samples, set 6 (AID 720513);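 also: cells made to overexpress flag tagged PGC1a plus GCN5 acetyltransferase by viral infection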

Row | Compound | AC40 [µM]
1 | CCOC(=O)c1ccc(NC(=O)N2CCc3ccccc3C2)cc1 | 0.478
2 | COc1ccc(CCNC(=O)c2cc(-c3ccco3)on2)cc1OC | 5.2
3 | CC1CCCN(Cc2c(O)ccc3c(=O)c(-c4nc5ccccc5s4)c(N)oc23)C1 (stereo unspecified) | 5.03
4 | CC(=O)c1ccc(N2CCN(c3ccc(S(=O)(=O)NCCN(C)C)cc3[N+](=O)[O-])CC2)cc1 | 6.58
5 | CCn1c(SC/C=C/c2ccccc2)nnc1-c1cccs1 | 11.2
6 | Cc1nc(N2CCN(S(=O)(=O)c3ccc(F)cc3)CC2)c2c(-c3cccs3)csc2n1 | 3.27
7 | COc1ccc(NC(=O)C2(C)Cc3c(-c4cccc(NC(C)=O)c4)ccnc3O2)cc1 (stereo unspecified) | 17.1
8 | Cc1cccc(C(=O)Nc2ccc(C(=O)/C=C/c3cccnc3)cc2)c1 | 2.34
9 | CCOC(=S)SCC(=O)Nc1nc(C)c(C)s1 | 3.58
10 | O=C(Cc1ccccc1)N1CCN(C(=O)c2cccs2)CC1 | 10
11 | O=C(Nc1ccccc1)C1=C[C@@H](c2ccc(C(F)(F)F)cc2)C[C@@H](OCc2ccc(CO)cc2)O1 | < 2.6
12 | Cc1ccc(S(=O)(=O)N2CCN(S(=O)(=O)c3ccc(C)cc3)C2c2ccccc2)cc1 | 2.7
13 | O=C(CN1CCC(n2nnc3cc(F)ccc32)CC1)NCc1ccco1 | 1.69
14 | CC1CCN(S(=O)(=O)c2ccc(NC(=O)c3ccccc3F)cc2)CC1 | 15.3
15 | Cc1cc(Cn2nc(C(=O)NCc3cccc(C(F)(F)F)c3)cc2-c2ccccc2)on1 | 5.81
16 | O=C(CCCn1c(=O)[nH]c2cc(Cl)ccc2c1=O)NCCC1=CCCCC1 | 0.371
17 | CCOC(=O)C1=CC[C@@H](c2ccccc2)N(S(=O)(=O)c2ccc(C)cc2)[C@H]1c1ccc(CC)cc1 | 0.785
18 | COc1ccc(-c2c(-c3cc(OC)cc(OC)c3)n(C)c3ccc(-c4cnc(N)nc4)cc23)cc1 | 0.974
19 | Cc1cccc(-c2ccc3[nH]c4c(c3c2)CCN2C[C@@H]([C@H](C)O)[C@@H](N(C)C(=O)NC3CCCCC3)C[C@@H]42)c1 | 13.7
20 | COc1cccc(N(CC(=O)NCc2cccnc2)S(C)(=O)=O)c1 | 14.2
21 | CC(OC(=O)C1CCCC1)C(=O)Nc1ccc(C(N)=O)cc1 (stereo unspecified) | 15.8
22 | O=C(CN1CCC(n2nnc3ccccc32)CC1)NCc1cccs1 | 1.67
23 | COc1ccc(Br)cc1CNc1ccccc1 | 8.98
24 | O=C(NCc1cccs1)C1Cc2c(-c3ccc(Cl)cc3)ccnc2O1 (stereo unspecified) | 8.86
25 | C=CCS(=O)(=O)c1nc2ccccc2s1 | 2.99
26 | O=C1CC(Sc2nnc(-c3ccccc3O)o2)C(=O)N1c1ccccc1 (stereo unspecified) | 7.23

Row | Compound | AC40 [µM]
27 | O=C(CCc1nc2ccccc2c(=O)[nH]1)Nc1ccc(N2CCCCC2)cc1 | 4.4
28 | N#Cc1ccc(Oc2cccnc2)cc1C#N | 6.09
29 | Cc1cc(C)c2nc(N(CCCN(C)C)C(=O)c3ccc(S(=O)(=O)N4CCCCCC4)cc3)sc2c1 | 2.9
30 | CCOC(=O)C1=CC[C@@H](c2ccc(OC)cc2)N(S(=O)(=O)c2ccc(C)cc2)[C@H]1CC | 3.36
31 | O=C(c1ccccc1Nc1ccc(SC(F)F)cc1)N1CCCCCC1 | 10.3
32 | O=C(NCc1csc(-c2cccs2)n1)c1cccc(Cl)c1 | 6.13
33 | COc1ccc(C(c2nnnn2C2CCCCC2)N2CCC3(CC2)C(=O)NCN3c2ccccc2)cc1 (stereo unspecified) | 3.46
34 | O=C1NC(=Nc2ccccc2Cl)S/C1=C\c1cccc([N+](=O)[O-])c1O | 10.6
35 | COc1cc(CN2CC3(CCN(S(=O)(=O)c4cccs4)CC3)c3c(n(C)c4cc(OC)ccc34)[C@H]2CO)cc(OC)c1 | 14.3
36 | OC1CCCC1NCc1ccnc2cc(Cl)ccc12 (stereo unspecified) | 10.6
37 | CC(C)NC(=O)Nc1ccc2c(c1)C(=O)N([C@@H](C)CO)C[C@@H](C)[C@@H](CN(C)S(=O)(=O)c1ccccc1)OCCCC[C@H](C)O2 | 14.8
38 | O=C(C1CCC1)N1CCN(S(=O)(=O)c2ccccc2)CC1 | 2.24
39 | O=C(CN1CCC(n2nnc3cc(F)ccc32)CC1)Nc1ccc2c(c1)CCC2 | 2.71
40 | Nc1c(C(=O)Nc2ccccc2)c2nc3ccccc3nc2n1CCCN1CCOCC1 | 4.85
41 | COc1ccc(S(=O)(=O)N(C)C[C@@H]2Oc3cc(C#CC4CC4)ccc3S(=O)(=O)N([C@@H](C)CO)C[C@@H]2C)cc1 | 15.2
42 | CCN(CC)CCCn1c(=S)[nH]c2cc(Cl)ccc2c1=O | 0.631
43 | COc1ccc(-c2nc(N)c(C#N)c(-c3cccnc3)c2C)cc1 | 0.69
44 | CCOC(=O)CNS(=O)(=O)c1cc(-c2nnc(Nc3ccc4c(c3)OCO4)c3ccccc23)ccc1C | 1.29
45 | COc1ccc(NC(=O)C(=O)NCCC2CCCCN2S(=O)(=O)c2cccs2)cc1 (stereo unspecified) | 17.9
46 | CCOC(=O)C1=CC[C@@H](c2ccc(F)cc2)N(S(=O)(=O)c2ccc(C)cc2)[C@H]1c1ccccc1 | 3.22
47 | Oc1ccc(Nc2nnc(-c3ccc(O)cc3)c3ccccc23)cc1 | 1.57
48 | CC12CCC(C1)C(C)(C)C2NS(=O)(=O)c1ccc(F)cc1 (stereo unspecified) | 5.98
49 | Cc1ccc(CC(=O)N2CCN(c3ccc([N+](=O)[O-])cc3)CC2)cc1 | 0.312
50 | C[C@H](CO)N1C[C@H](C)[C@@H](CN(C)Cc2ccc3c(c2)OCO3)Oc2cc(Br)ccc2S1(=O)=O | 18.6
51 | COc1ccc(C#Cc2cnc3c(c2)C(=O)N([C@H](C)CO)C[C@H](C)[C@H](CN(C)S(=O)(=O)c2cccc(F)c2)O3)cc1OC | 18.8
52 | CCN(CC)CC(=O)N1c2ccccc2CCc2ccc(NC(=O)c3cc(OC)c(OC)c(OC)c3)cc21 | 8.84

Row | Compound | AC40 [µM]
53 | Cc1ccc(/C(N)=N/OC(=O)c2ccco2)cc1 | 8.81
54 | CCCOc1ccc(C(=O)Nc2cccnc2)cc1 | 2.52
55 | COc1ccc(-n2c(=O)c3c4c(sc3n3c(=S)[nH]nc23)CCC4)cc1 | 0.563
56 | COc1cccc(S(=O)(=O)N(C)C[C@@H]2Oc3cc(C4=CCCC4)ccc3S(=O)(=O)N([C@H](C)CO)C[C@@H]2C)c1 | 13
57 | COc1ccc(CC(=O)OCC(=O)NCc2ccco2)cc1 | 9.28
58 | CN1Cc2c(N3CCOCC3)nc3sc(C(=O)c4ccc(Br)cc4)c(N)c3c2CC1(C)C | 0.996
59 | O=[N+]([O-])c1ccc(S(=O)(=O)c2cccc(C(F)(F)F)c2)nc1 | 0.581
60 | COc1cccc(-c2ccc(C3[C@@H]4CN(S(=O)(=O)c5cccc(OC)c5)C[C@H]3N4)cc2)c1 (stereo partly specified) | 10.5
61 | O=C(c1ccco1)N1CCN(c2nnc(-c3ccccc3)c3ccccc23)CC1 | 4.28
62 | O=C(NCCC1=CCCCC1)c1coc(=O)c(Br)c1 | 1.37
63 | COc1cc(NC(=O)c2cccs2)c(OC)cc1NC(=O)CCC(=O)Nc1ccc2ncccc2c1 | 0.785
64 | O=C(NCc1ccco1)c1scc2c1OCCO2 | 12.3
65 | CC1CCCCN1C(=O)/C(=C\c1ccccc1)c1ccccc1 (stereo unspecified) | 8.57
66 | CCCCC(=O)Nc1ccc(C(=O)NCCCn2ccnc2)cc1 | 0.269
67 | O=C(c1cc(C2CC2)on1)N1CCCC(N2CCN(c3cccc(C(F)(F)F)c3)CC2)C1 (stereo unspecified) | 10.8
68 | Cc1ccc2[nH]c(=O)c(CN(Cc3ccc4c(c3)OCO4)Cc3nnnn3C3CCCC3)cc2c1 | 7.98
69 | COc1ccc(NC(=O)c2sccc2SCc2cccc(C(F)(F)F)c2)cc1 | 4.18
70 | O=[N+]([O-])c1cc(-c2nnc(Nc3ccc(O)cc3)c3ccccc23)ccc1N1CCOCC1 | 2.74
71 | CCSc1ccc(NC(=O)c2cccnc2)cc1 | 1.65
72 | CNC(=O)c1nnsc1S(=O)c1ccc(Cl)cc1 (stereo unspecified) | 1.96
73 | Cc1csc(NC(=O)NC2(C(F)(F)F)Oc3ccccc3O2)n1 | 6.24
74 | N#Cc1ccccc1S(=O)(=O)N1CCN(Cc2cc3c(cc2Br)OCCO3)CC1 | 0.934
75 | Cc1cc(C(=O)NNS(=O)(=O)c2ccc(F)cc2)nn1C(C)(C)C | 1.09
76 | CC(=O)Nc1ccc(NC(=O)CN(c2cc(Cl)ccc2Cl)S(C)(=O)=O)cc1 | 1.14
77 | COc1cc(-c2cnc3c(NC(C)=O)cc(-c4ccccc4CN(C)C)cn23)cc(OC)c1OC | 8.19
78 | COc1ccccc1-c1ccc(C2[C@@H]3CN(Cc4cccc(F)c4)C[C@H]2N3)cc1 (stereo partly specified) | 7.21

Row | Compound | AC40 [µM]
79 | CC(C)(C)c1ccc(NC(=O)N2CCN(c3ccc([N+](=O)[O-])cn3)CC2)cc1 | < 0.16
80 | COc1ccc(C#Cc2c(-c3ccccc3)n(-c3ccccc3)c3ccc(CO)cc23)cc1 | 2.19
81 | C[n+]1c2n(c3ccccc31)N=C(c1cc(C(C)(C)C)c(O)c(C(C)(C)C)c1)CS2 | 3.5
82 | O=C(Nc1ccccc1-c1ccccc1)NC1CC2CCCC(C1)N2Cc1ccc(F)cc1 (stereo unspecified) | 10.5
83 | Cc1cccc(C)c1-n1nnnc1C(c1ccccc1OC(F)(F)F)N1CCC(n2c(=O)[nH]c3ccccc32)CC1 (stereo unspecified) | 3.94
84 | COc1ccc(Cn2nnnc2C(C(C)C)N(Cc2ccco2)Cc2cccs2)cc1 (stereo unspecified) | 2.6
85 | CC(C)(C)n1nnnc1C(CCc1ccccc1)N1CCC2(CC1)C(=O)NCN2c1ccccc1 (stereo unspecified) | 5.44
86 | CC1(C)CC(=O)C2=C(C1)Nc1ccccc1N1C(=O)c3ccccc3C21 (stereo unspecified) | 2.15
87 | COC(=O)c1cc2ccsc2n1CC(=O)Nc1cc(Cl)ccc1OC | 7.88
88 | Cn1ncc(Cl)c1C(=O)Nc1sc2c(c1C(N)=O)CCC2 | 5.65
89 | CCc1nnc(NC(=O)Cc2ccc(S(=O)(=O)N3CCCCC3)cc2)s1 | 16.6
90 | Cc1ccc(NC(=O)c2c(C(F)(F)F)nn(C)c2SCc2ccc(Cl)cc2)cc1C | 5.5
91 | COc1ccc(NC(=O)CSC2CC(=O)N(c3ccc4c(c3)OCCO4)C2=O)cc1 (stereo unspecified) | 16.5
92 | CCOC(=O)c1c(CN2CCN(CC#N)CC2)n(C)c2cc(Br)c(OC)cc12 | 0.701
93 | COc1ccc(OC(=O)N(C)C[C@H]2OCc3ccccc3-c3c(n(C)c4ccccc34)C(=O)N([C@H](C)CO)C[C@H]2C)cc1 | 6.06
94 | COc1ccc(N(C(=O)c2snc(C(N)=O)c2N)C(C(=O)NC2CCCCC2)c2ccc(F)cc2)c(OC)c1 (stereo unspecified) | 3.26
95 | COc1ccc(N(C(=O)c2snc(C(N)=O)c2N)C(C(=O)NC2CCCCC2)c2ccc(C)o2)cc1 (stereo unspecified) | 5.68
96 | CC(=O)Nc1cc(C(=O)OCc2cccc([N+](=O)[O-])c2)ccc1C | 10.4
97 | C[C@@H]1CN([C@H](C)CO)C(=O)c2cc(N(C)C)ccc2O[C@@H](C)CCCCO[C@H]1CN(C)C(=O)Nc1ccccc1 | 10.6
98 | COC(=O)c1cc(S(=O)(=O)N2CCN(c3ccc(C(C)=O)cc3)CC2)c[nH]1 | 4.17
99 | C[C@@H]1CN([C@H](C)CO)C(=O)c2c(c3ccccc3n2C)-c2ccccc2CO[C@@H]1CN(C)C(=O)Nc1ccc2c(c1)OCO2 | 10.7
100 | NC(=O)Cn1cc(C(=O)c2cccs2)c2ccccc21 | 3.92
101 | C[C@H]1CN([C@@H](C)CO)C(=O)c2cccc(NS(=O)(=O)c3ccc(F)cc3)c2O[C@H]1CN(C)Cc1ccc(C(F)(F)F)cc1 | 1.3
